Values after ≈ are worked out from the molar mass of the structure shown.
Experiment: Solubility screen of 5-MeO-DMT in solvents at room temperature and reflux
Conditions: for solubility: thermodynamic from solid
Description: A solubility screen of 5-MeO-DMT was performed on a number of solvents at both room temperature and reflux.

COc1ccc2[nH]cc(CCN(C)C)c2c1 [5-MeO-DMT, 5-Methoxy-N,N-dimethyltryptamine]
solubility (2-methyltetrahydrofuran, organic solvent or mixture, 5-MeO-DMT Solubility Ambient, solvent 2-Methyltetrahydrofuran (2-MeTHF), ambient (room temperature)): 250 mg/mL (≈ 1150 mM) | solubility (acetone, organic solvent or mixture, 5-MeO-DMT Solubility Ambient, solvent Acetone, ambient (room temperature)): 530 mg/mL (≈ 2430 mM) | solubility (ethanol, organic solvent or mixture, 5-MeO-DMT Solubility Ambient, solvent Ethanol, ambient (room temperature)): 340 mg/mL (≈ 1560 mM) | solubility (ethyl acetate, organic solvent or mixture, 5-MeO-DMT Solubility Ambient, solvent Ethyl Acetate, ambient (room temperature)): 260 mg/mL (≈ 1190 mM) | solubility (heptanes, organic solvent or mixture, 5-MeO-DMT Solubility Ambient, solvent Heptanes, ambient (room temperature)): < 50 mg/mL | solubility (heptanes, organic solvent or mixture, 5-MeO-DMT Solubility Reflux, solvent Heptanes, reflux): < 50 mg/mL | solubility (in words) (in MTBE at room temperature): not observed to be soluble | solubility (in words) (in MTBE when the temperature of the solvent was increased): very soluble | solubility (in words) (in heptanes): Poor solubility | solubility (in words) (in water): Poor solubility | solubility (isopropanol, organic solvent or mixture, 5-MeO-DMT Solubility Ambient, solvent Isopropanol (IPA), ambient (room temperature)): 180 mg/mL (≈ 825 mM) | solubility (isopropyl acetate, organic solvent or mixture, 5-MeO-DMT Solubility Ambient, solvent Isopropyl acetate (IPAc), ambient (room temperature)): 210 mg/mL (≈ 962 mM) | solubility (methyl tert-butyl ether, organic solvent or mixture, 5-MeO-DMT Solubility Ambient, solvent Methyl tert-butyl ether (MTBE), ambient (room temperature)): < 50 mg/mL | solubility (methyl tert-butyl ether, organic solvent or mixture, 5-MeO-DMT Solubility Reflux, solvent Methyl tert-butyl ether (MTBE), reflux): 420 mg/mL (≈ 1920 mM) | 5-MeO-DMT Solubility Ambient (vols.) (solvent 2-Methyltetrahydrofuran (2-MeTHF), ambient (room temperature)): 4.0 vols. | 5-MeO-DMT Solubility Ambient (vols.) (solvent Acetone, ambient (room temperature), volumes of solvent for complete dissolution of 200 mg): 1.9 vols. | 5-MeO-DMT Solubility Ambient (vols.) (solvent Ethanol, ambient (room temperature)): 2.9 vols. | 5-MeO-DMT Solubility Ambient (vols.) (solvent Ethyl Acetate, ambient (room temperature)): 3.9 vols. | 5-MeO-DMT Solubility Ambient (vols.) (solvent Heptanes, ambient (room temperature)): >20 vols. | 5-MeO-DMT Solubility Reflux (vols.) (solvent Heptanes, reflux): >20 vols. | 5-MeO-DMT Solubility Ambient (vols.) (solvent Isopropanol (IPA), ambient (room temperature)): 5.6 vols. | 5-MeO-DMT Solubility Ambient (vols.) (solvent Isopropyl acetate (IPAc), ambient (room temperature)): 4.8 vols. | 5-MeO-DMT Solubility Ambient (vols.) (solvent Methyl tert-butyl ether (MTBE), ambient (room temperature)): >20 vols. | 5-MeO-DMT Solubility Reflux (vols.) (solvent Methyl tert-butyl ether (MTBE), reflux): 2.4 vols. | 5-MeO-DMT Solubility Ambient (vols.) (solvent Toluene, ambient (room temperature)): 5.1 vols. | 5-MeO-DMT Solubility Ambient (vols.) (solvent Water, ambient (room temperature)): >20 vols. | 5-MeO-DMT Solubility Reflux (vols.) (solvent Water, reflux): >20 vols. | solubility (toluene, organic solvent or mixture, 5-MeO-DMT Solubility Ambient, solvent Toluene, ambient (room temperature)): 200 mg/mL (≈ 916 mM) | solubility (water, 100 °C, 5-MeO-DMT Solubility Reflux, solvent Water, reflux): < 50 mg/mL | solubility (water, 5-MeO-DMT Solubility Ambient, solvent Water, ambient (room temperature)): < 50 mg/mL
